Reference: ChEMBL document CHEMBL5726876, “NHE3-binding compounds and methods for inhibiting phosphate transport” (2019)

Assay: Cell-based activity under Prompt Conditions: Cell-based activity under Prompt Conditions. Rat or human NHE3-mediated Na+-dependent H+ antiport was measured using a modification of the pH sensitive dye method originally reported by Paradiso (PNAS USA. 81:7436-7440, 1984). Opossum kidney (OK) cells were obtained from the ATCC and propagated per their instructions. The rat NHE3 gene (GenBank M85300) or the human NHE3 gene (GenBank NM_004174.1) was introduced into OK cells via electroporation, and cells were seeded into 96 well plates and grown overnight. Medium was aspirated from the wells, cells were washed twice with NaCl-HEPES buffer (100 mM NaCl, 50 mM HEPES, 10 mM glucose, 5 mM KCl, 2 mM CaCl2, 1 mM MgCl2, pH 7.4), then incubated for 30 min at room temperature with NH4Cl-HEPES buffer (20 mM NH4Cl, 80 mM NaCl, 50 mM HEPES, 5 mM KCl, 2 mM CaCl2, 1 mM MgCl2, pH 7.4) containing 5 μM bis(acetoxymethyl) 3,3′-(3′,6′-bis(acetoxymethoxy)-5-((acetoxymethoxy)carbonyl)-3-oxo-3H-spiro[isobenzofuran-1,9′-xanthene]-2′,7′-diyl)dipropanoate (BCECF-AM).Cells were washed twice with Ammonium free, Na+-free HEPES (100 mM choline, 50 mM HEPES, 10 mM glucose, 5 mM KCl, 2 mM CaCl2, 1 mM MgCl2, pH 7.4) and incubated in the same buffer for 10 minutes at room temperature to lower intracellular pH. […] Initial rates were plotted as the average 2 or more replicates, and pIC50 values were estimated using GraphPad Prism.

Compound | IC50
CN1Cc2c(Cl)cc(Cl)cc2[C@H](c2cccc(S(=O)(=O)NCCOCCOCCNC(=O)CCC(CCC(=O)NCCOCCOCCNS(=O)(=O)c3cccc([C@@H]4CN(C)Cc5c(Cl)cc(Cl)cc54)c3)(CCC(=O)NCCOCCOCCNS(=O)(=O)c3cccc([C@@H]4CN(C)Cc5c(Cl)cc(Cl)cc54)c3)NC(=O)NC[C@H](O)[C@@H](O)[C@H](O)[C@H](O)CO)c2)C1 | 56.2 nM
O=C(NCCCCNC(=O)NCCOCCOCCNS(=O)(=O)c1ccc(O[C@H]2c3cc(Cl)cc(F)c3C[C@@H]2N2CC[C@@H](O)C2)cc1)NCCOCCOCCNS(=O)(=O)c1ccc(O[C@H]2c3cc(Cl)cc(F)c3C[C@@H]2N2CC[C@@H](O)C2)cc1 | < 10000 nM
CN1Cc2c(Cl)cc(Cl)cc2[C@H](c2cccc(S(=O)(=O)NCCOCCOCCNC(=O)CCC(CCC(=O)NCCOCCOCCNS(=O)(=O)c3cccc([C@@H]4CN(C)Cc5c(Cl)cc(Cl)cc54)c3)(CCC(=O)NCCOCCOCCNS(=O)(=O)c3cccc([C@@H]4CN(C)Cc5c(Cl)cc(Cl)cc54)c3)NC(=O)NCC(=O)O)c2)C1 | 29.5 nM
CN1Cc2c(Cl)cc(Cl)cc2[C@H](c2cccc(S(=O)(=O)NCCOCCOCCNC(=O)CCC(CCC(=O)NCCOCCOCCNS(=O)(=O)c3cccc([C@@H]4CN(C)Cc5c(Cl)cc(Cl)cc54)c3)(CCC(=O)NCCOCCOCCNS(=O)(=O)c3cccc([C@@H]4CN(C)Cc5c(Cl)cc(Cl)cc54)c3)NC(=O)Cc3nnn[nH]3)c2)C1 | 200 nM
CC(=O)C(CCC(=O)NCCOCCOCCNS(=O)(=O)c1cccc([C@@H]2CN(C)Cc3c(Cl)cc(Cl)cc32)c1)(CCC(=O)NCCOCCOCCNS(=O)(=O)c1cccc([C@@H]2CN(C)Cc3c(Cl)cc(Cl)cc32)c1)CCC(=O)NCCOCCOCCNS(=O)(=O)c1cccc([C@@H]2CN(C)Cc3c(Cl)cc(Cl)cc32)c1 | 316 nM
CN(C)[C@H]1Cc2c(Cl)cc(Cl)cc2[C@@H]1Oc1ccc(S(=O)(=O)NCCOCCOCCNC(=O)COCC(=O)NCCOCCOCCNS(=O)(=O)c2ccc(O[C@H]3c4cc(Cl)cc(Cl)c4C[C@@H]3N(C)C)cc2)cc1 | 7.94 nM
CN(C)[C@H]1Cc2c(Cl)cc(Cl)cc2[C@@H]1Oc1ccc(S(=O)(=O)NCCOCCOCCNC(=O)CCC(C)(N)CCC(=O)NCCOCCOCCNS(=O)(=O)c2ccc(O[C@H]3c4cc(Cl)cc(Cl)c4C[C@@H]3N(C)C)cc2)cc1 | 2.51 nM
CN(C)[C@H]1Cc2c(Cl)cc(Cl)cc2[C@@H]1Oc1ccc(S(=O)(=O)NCCOCCOCCNC(=O)CCC(=O)NCCOCCOCCNS(=O)(=O)c2ccc(O[C@H]3c4cc(Cl)cc(Cl)c4C[C@@H]3N(C)C)cc2)cc1 | 3.98 nM
CN1Cc2c(Cl)cc(Cl)cc2[C@H](c2cccc(S(=O)(=O)NCCOCCOCCNC(=O)CCC(CCC(=O)NCCOCCOCCNS(=O)(=O)c3cccc([C@@H]4CN(C)Cc5c(Cl)cc(Cl)cc54)c3)(CCC(=O)NCCOCCOCCNS(=O)(=O)c3cccc([C@@H]4CN(C)Cc5c(Cl)cc(Cl)cc54)c3)NC(=O)N[C@@H](CO)C(=O)O)c2)C1 | 12.6 nM
CN(C)[C@H]1Cc2c(Cl)cc(Cl)cc2[C@@H]1Oc1ccc(S(=O)(=O)NCCOCCOCCNC(=O)Nc2ccc(NC(=O)NCCOCCOCCNS(=O)(=O)c3ccc(O[C@H]4c5cc(Cl)cc(Cl)c5C[C@@H]4N(C)C)cc3)cc2)cc1 | < 10000 nM
CN1Cc2c(Cl)cc(Cl)cc2[C@H](c2cccc(S(=O)(=O)NCCOCCOCCNC(=O)CCC(CCC(=O)NCCOCCOCCNS(=O)(=O)c3cccc([C@@H]4CN(C)Cc5c(Cl)cc(Cl)cc54)c3)(CCC(=O)NCCOCCOCCNS(=O)(=O)c3cccc([C@@H]4CN(C)Cc5c(Cl)cc(Cl)cc54)c3)NC(=O)NCCS(=O)(=O)O)c2)C1 | 20 nM
CN1Cc2c(Cl)cc(Cl)cc2[C@H](c2cccc(S(=O)(=O)NCCOCCOCCNC(=O)CCC(CCC(=O)NCCOCCOCCNS(=O)(=O)c3cccc([C@@H]4CN(C)Cc5c(Cl)cc(Cl)cc54)c3)(CCC(=O)NCCOCCOCCNS(=O)(=O)c3cccc([C@@H]4CN(C)Cc5c(Cl)cc(Cl)cc54)c3)NC(=O)NCCN3CCOCC3)c2)C1 | 63.1 nM
CN(C)[C@H]1Cc2c(F)cc(Cl)cc2[C@@H]1Oc1ccc(S(=O)(=O)NCCOCCOCCNC(=O)NCCCCNC(=O)NCCOCCOCCNS(=O)(=O)c2ccc(O[C@H]3c4cc(Cl)cc(F)c4C[C@@H]3N(C)C)cc2)cc1 | < 10000 nM
CN1Cc2c(Cl)cc(Cl)cc2[C@H](c2cccc(S(=O)(=O)NCCOCCOCCNC(=O)NCCCC(CCCNC(=O)NCCOCCOCCNS(=O)(=O)c3cccc([C@@H]4CN(C)Cc5c(Cl)cc(Cl)cc54)c3)(CCCNC(=O)NCCOCCOCCNS(=O)(=O)c3cccc([C@@H]4CN(C)Cc5c(Cl)cc(Cl)cc54)c3)NC(=O)COCC(=O)O)c2)C1 | 0.631 nM
CN1Cc2c(Cl)cc(Cl)cc2[C@H](c2cccc(S(=O)(=O)NCCOCCOCCNC(=O)CCC(CCC(=O)NCCOCCOCCNS(=O)(=O)c3cccc([C@@H]4CN(C)Cc5c(Cl)cc(Cl)cc54)c3)(CCC(=O)NCCOCCOCCNS(=O)(=O)c3cccc([C@@H]4CN(C)Cc5c(Cl)cc(Cl)cc54)c3)NC(=O)NC(CO)(CO)CO)c2)C1 | < 10000 nM
C[C@@H](O)[C@H](NC(=O)NC(CCC(=O)NCCOCCOCCNS(=O)(=O)c1cccc([C@@H]2CN(C)Cc3c(Cl)cc(Cl)cc32)c1)(CCC(=O)NCCOCCOCCNS(=O)(=O)c1cccc([C@@H]2CN(C)Cc3c(Cl)cc(Cl)cc32)c1)CCC(=O)NCCOCCOCCNS(=O)(=O)c1cccc([C@@H]2CN(C)Cc3c(Cl)cc(Cl)cc32)c1)C(N)=O | 63.1 nM
CN(C)[C@H]1Cc2c(Cl)cc(Cl)cc2[C@@H]1Oc1ccc(S(=O)(=O)NCCOCCOCCNC(=O)[C@H](O)[C@@H](O)C(=O)NCCOCCOCCNS(=O)(=O)c2ccc(O[C@H]3c4cc(Cl)cc(Cl)c4C[C@@H]3N(C)C)cc2)cc1 | 2.51 nM
CN1Cc2c(Cl)cc(Cl)cc2[C@H](c2cccc(S(=O)(=O)NCCOCCOCCNC(=O)NCCCC(N)(CCCNC(=O)NCCOCCOCCNS(=O)(=O)c3cccc([C@@H]4CN(C)Cc5c(Cl)cc(Cl)cc54)c3)CCCNC(=O)NCCOCCOCCNS(=O)(=O)c3cccc([C@@H]4CN(C)Cc5c(Cl)cc(Cl)cc54)c3)c2)C1 | 100 nM
CN1Cc2c(Cl)cc(Cl)cc2[C@H](c2cccc(S(=O)(=O)N(CCO)CCOCCOCCNC(=O)NCCCN(CCCNC(=O)NCCOCCOCCN(CCO)S(=O)(=O)c3cccc([C@@H]4CN(C)Cc5c(Cl)cc(Cl)cc54)c3)CCCNC(=O)NCCOCCOCCN(CCO)S(=O)(=O)c3cccc([C@@H]4CN(C)Cc5c(Cl)cc(Cl)cc54)c3)c2)C1 | 15.8 nM
CN1Cc2c(Cl)cc(Cl)cc2[C@H](c2cccc(S(=O)(=O)NCCOCCOCCNC(=O)CCC(CCC(=O)NCCOCCOCCNS(=O)(=O)c3cccc([C@@H]4CN(C)Cc5c(Cl)cc(Cl)cc54)c3)(CCC(=O)NCCOCCOCCNS(=O)(=O)c3cccc([C@@H]4CN(C)Cc5c(Cl)cc(Cl)cc54)c3)NC(=O)Cn3ccnc3)c2)C1 | 158 nM
CN(C)[C@H]1Cc2c(Cl)cc(Cl)cc2[C@@H]1Oc1ccc(S(=O)(=O)NCCOCCOCCNC(=O)C(C)(C)C(=O)NCCOCCOCCNS(=O)(=O)c2ccc(O[C@H]3c4cc(Cl)cc(Cl)c4C[C@@H]3N(C)C)cc2)cc1 | 5.01 nM
CN1Cc2c(Cl)cc(Cl)cc2[C@H](c2cccc(S(=O)(=O)NCCOCCOCCNC(=O)NCCC(CCNC(=O)NCCOCCOCCNS(=O)(=O)c3cccc([C@@H]4CN(C)Cc5c(Cl)cc(Cl)cc54)c3)(CCNC(=O)NCCOCCOCCNS(=O)(=O)c3cccc([C@@H]4CN(C)Cc5c(Cl)cc(Cl)cc54)c3)NC(=O)COCC(=O)O)c2)C1 | 6.31 nM
CN1Cc2c(Cl)cc(Cl)cc2[C@H](c2cccc(S(=O)(=O)NCCOCCOCCNC(=O)NCCCC(CCCNC(=O)NCCOCCOCCNS(=O)(=O)c3cccc([C@@H]4CN(C)Cc5c(Cl)cc(Cl)cc54)c3)(CCCNC(=O)NCCOCCOCCNS(=O)(=O)c3cccc([C@@H]4CN(C)Cc5c(Cl)cc(Cl)cc54)c3)NC(=O)CCC(=O)O)c2)C1 | 20 nM
CC(O)C(CCC(=O)NCCOCCOCCNS(=O)(=O)c1cccc([C@@H]2CN(C)Cc3c(Cl)cc(Cl)cc32)c1)(CCC(=O)NCCOCCOCCNS(=O)(=O)c1cccc([C@@H]2CN(C)Cc3c(Cl)cc(Cl)cc32)c1)CCC(=O)NCCOCCOCCNS(=O)(=O)c1cccc([C@@H]2CN(C)Cc3c(Cl)cc(Cl)cc32)c1 (some centres undefined) | 25.1 nM
CN1Cc2c(Cl)cc(Cl)cc2[C@H](c2cccc(S(=O)(=O)NCCOCCOCCNC(=O)NCCCC(CCCNC(=O)NCCOCCOCCNS(=O)(=O)c3cccc([C@@H]4CN(C)Cc5c(Cl)cc(Cl)cc54)c3)(CCCNC(=O)NCCOCCOCCNS(=O)(=O)c3cccc([C@@H]4CN(C)Cc5c(Cl)cc(Cl)cc54)c3)NC(=O)NC[C@H](O)[C@@H](O)[C@H](O)[C@H](O)CO)c2)C1 | 1580 nM
CN1Cc2c(Cl)cc(Cl)cc2[C@H](c2cccc(S(=O)(=O)NCCOCCOCCNC(=O)CCC(CCCNC(=O)NCCOCCOCCNS(=O)(=O)c3cccc([C@@H]4CN(C)Cc5c(Cl)cc(Cl)cc54)c3)(CCC(=O)NCCOCCOCCNS(=O)(=O)c3cccc([C@@H]4CN(C)Cc5c(Cl)cc(Cl)cc54)c3)NC(=O)NCP(=O)(O)O)c2)C1 | 50.1 nM
CN1CCN(C(=O)NC(CCC(=O)NCCOCCOCCNS(=O)(=O)c2cccc([C@@H]3CN(C)Cc4c(Cl)cc(Cl)cc43)c2)(CCC(=O)NCCOCCOCCNS(=O)(=O)c2cccc([C@@H]3CN(C)Cc4c(Cl)cc(Cl)cc43)c2)CCC(=O)NCCOCCOCCNS(=O)(=O)c2cccc([C@@H]3CN(C)Cc4c(Cl)cc(Cl)cc43)c2)CC1 | 126 nM
CN1Cc2c(Cl)cc(Cl)cc2[C@H](c2cccc(S(=O)(=O)NCCOCCOCCNC(=O)NCCC(N)(CCNC(=O)NCCOCCOCCNS(=O)(=O)c3cccc([C@@H]4CN(C)Cc5c(Cl)cc(Cl)cc54)c3)CCNC(=O)NCCOCCOCCNS(=O)(=O)c3cccc([C@@H]4CN(C)Cc5c(Cl)cc(Cl)cc54)c3)c2)C1 | 44.7 nM
CN1Cc2c(Cl)cc(Cl)cc2[C@H](c2cccc(S(=O)(=O)NCCOCCOCCNC(=O)CCC(CCC(=O)NCCOCCOCCNS(=O)(=O)c3cccc([C@@H]4CN(C)Cc5c(Cl)cc(Cl)cc54)c3)(CCC(=O)NCCOCCOCCNS(=O)(=O)c3cccc([C@H]4c5cc(Cl)cc(Cl)c5CCN4C)c3)NC(=O)N[C@@H](CC(=O)O)C(=O)O)c2)C1 | 25.1 nM
